In US7202287B2, “Method and compositions” (Arch Chemicals, Inc., priority 2000, dated 2007):

Experiments:
[1] = tested on: Pseudomonas aeruginosa NCIB 10421; assay: Minimum inhibitory concentration against mono-cultures, microtitre plate doubling dilutions in nutrient broth; format: cell-based; conditions: 24 hours at 37° C., visual inspection
Experimental: Pseudomonas aeruginosa NCIB 10421 Bacteria were grown to stationary phase (18 h) in nutrient broth (approximately 10^9 organisms per ml). A 0.1% (v/v) inoculum was used to seed fresh medium and 100 μl of the inoculum was then added to each well of a microtitre plate, except for the first well which contained 200 μl. Using doubling dilutions, the concentration of the compounds under investigation were varied in each well along the ordinate axis. The presence or absence of growth was recorded by visual inspection after 24 hours incubation at 37° C. […]

[2] = tested on: Aspergillus Niger IMI 17454; assay: Minimum inhibitory concentration against monocultures (fungus); format: cell-based; conditions: Example 3, Table 5; biocide alone
Experimental: Aspergillus Niger IMI 17454 The fungus was maintained on malt agar. The MICs were calculated as described previously in examples 1 and 2.

| SMILES | MIC (ppm) against Ps. aeruginosa ([1]; Example 1, Table 1, biocide alone) [ppm] | MIC (ppm) against Ps. aeruginosa ([1]; Example 2, Table 3, biocide alone) [ppm] | MIC (ppm) against Aspergillus Niger [2] [ppm] |
| --- | --- | --- | --- |
| O=c1[nH]sc2ccccc12 [BIT, 1,2-benzisothiazolin-3-one] | 32 | – | – |
| CCCCn1sc2ccccc2c1=O [Butyl BIT, 2n-butyl-1,2-benzisothiazolin-3-one] | – | 125 | 8 |
